In patent US6444670B2 (Wyeth, priority 1998, dated 2002):

Experiments:
[1] = biological target: T1, Human recombinant PTP1B (hPTP1B) (Homo sapiens, UniProt P18031); format: biochemical
T1 construct: made in house
T1 sequence (P18031 1-435): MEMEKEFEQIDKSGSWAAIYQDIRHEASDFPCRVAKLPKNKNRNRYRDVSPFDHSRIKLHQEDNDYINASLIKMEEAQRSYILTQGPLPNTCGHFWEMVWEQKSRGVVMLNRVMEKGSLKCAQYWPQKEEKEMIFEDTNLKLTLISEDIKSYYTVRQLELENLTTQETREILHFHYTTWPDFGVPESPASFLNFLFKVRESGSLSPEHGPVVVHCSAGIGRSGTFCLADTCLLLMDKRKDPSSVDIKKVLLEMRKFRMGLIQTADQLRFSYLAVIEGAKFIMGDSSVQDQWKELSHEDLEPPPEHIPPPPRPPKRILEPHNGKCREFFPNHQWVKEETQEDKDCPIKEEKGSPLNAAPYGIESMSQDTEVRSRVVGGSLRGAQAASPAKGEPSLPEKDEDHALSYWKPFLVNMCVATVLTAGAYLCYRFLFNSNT

diabetic (ob/ob) mice = assay: Blood glucose lowering in diabetic (ob/ob) mice; format: in vivo, mouse; conditions: for % Change Glucose from Vehicle: plasma glucose
Source text: The procedures used and results obtained are briefly described below.
The non-insulin dependent diabetic (NIDDM) syndrome can be typically characterizes by obesity, hyperglycemia, abnormal insulin secretion, hyperinsulinemia and insulin resistance.
In each test procedure, mice [Male or female ob/ob (C57 B1/6J) and their lean litermates (ob/+ or +/+, Jackson Laboratories) ages 2 to 5 months (10 to 65 g)] of a similar age were randomized according to body weight into 4 groups of 10 mice. The mice were housed 5 per cage and are maintained on normal rodent chow with water ad libitum. Mice received test compound daily by gavage (suspended in 0.5 ml of 0.5% methyl cellulose); dissolved in the drinking water; or admixed in the diet. The dose of compounds given ranges from 2.5 to 200 mg/kg body weight/day. The dose is calculated based on the fed weekly body weight and is expressed as active moiety. […] Control mice received vehicle only.
On the morning of Day 4, 7 or 14 two drops of blood (approximetly 50 ul) were collected into sodium fluoride containing tubes either from the tail vein or after decapitation. For those studies in which the compound was administered daily by gavage the blood samples were collected 0 and 4 hours after compound administration. The plasma was isolated by centrifugation and the concentration of glucose is measured enzymatically on an Abbott V. P. Analyzer.
For each mouse, the percentage change in plasma glucose on Day 4, 7 or 14 is calculated relative to the mean plasma glucose of the vehicle treated mice. Analysis of variance followed by Dunett's Comparison Test (one-tailed) are used to estimate the significant difference between the plasma glucose values from the control group and the individual compound treated groups (CMS SAS Release 5.18).

[2] = test system: rat hepatic microsomal PTPases; conditions: 50 μM compound
[3] = dose 25 mg/Kg, (a) = no significant activity (p < 0.05) at this dose
[4] = dose 10 mg/Kg, (a) = no significant activity (p < 0.05) at this dose

Row | IC50 [1] | melting point | % Change from Control [2] | SMILES | % Change Glucose from Vehicle (diabetic (ob/ob) mice; [3]) | also measured
1 | 2.2 µM | 194 to 198 °C | – | COC(=O)CNc1cc(-c2c3ccccc3c(Br)c3sc(C)c(C)c23)cc(Br)c1OC [Example 59, [3-Bromo-5-(9-bromo-2,3-dimethyl-naphtho[2,3-b]thiophen-4-yl)-2-methoxy-phenylamino]-acetic Acid Methyl Ester] | – | –
2 | 0.115 µM | – | −83.54% | Cc1sc2c(Br)c3ccccc3c(-c3cc(Br)c(O[C@H](Cc4ccccc4)C(=O)O)c(Br)c3)c2c1C [Example 29, (R)-2-[2,6-Dibromo-4-(9-bromo-2,3-dimethyl-naphtho[2,3-b]thiophen-4-yl)-phenoxy]3-phenyl-propionic acid] | −38.18 ^ % | % Change Insulin from Vehicle (diabetic (ob/ob) mice; dose 10 mg/Kg): −48.11 ^ %; % Change Insulin from Vehicle (diabetic (ob/ob) mice; [3]): −80.50 ^ %; % Change Insulin from Vehicle (diabetic (ob/ob) mice; dose 100 mg/Kg): −89.59 ^ %; % Change Glucose from Vehicle (diabetic (ob/ob) mice; [4]): −18.6 (a) %; % Change Glucose from Vehicle (diabetic (ob/ob) mice; dose 100 mg/Kg): −48.63 ^ %
3 | 0.089 µM | – | −63.41% | CCC(C)c1cc(-c2c3ccccc3c(Br)c3sc(C)c(C)c23)cc(Br)c1O[C@H](Cc1ccccc1)C(=O)O (stereo partly drawn) [Example 42, (R)-2-[2-Bromo-4-(9-bromo-2,3-dimethyl-naphtho[2,3-b]thiophen-4-yl)-6-sec-butyl-phenoxy]-3-phenyl-propionic acid] | −32.5 ^ % | –
4 | 1.51 µM | > 190 °C (dec.) | – | COc1c(Br)cc(-c2c3ccccc3c(Br)c3sc(C)c(C)c23)cc1NCC(=O)O [Example 60, [3-Bromo-5-(9-bromo-2,3-dimethyl-naphtho[2,3-b]thiophen-4-yl)-2-methoxy-phenylamino]-acetic Acid] | – | –
5 | – | – | −89.36% | Cc1cc(-c2c3ccccc3c(Br)c3sc(C)c(C)c23)cc(C)c1O[C@H](Cc1ccccc1)C(=O)O [Example 49, (R)-2-[4-(9-Bromo-2,3-dimethyl-naphtho[2,3-b]thiophen-4-yl)-2,6-dimethyl-phenoxy]-3-phenyl-propionic acid] | – | % Change Glucose from Vehicle (diabetic (ob/ob) mice; [4]): −35.1 ^ %
6 | – | 190 to 191 °C | – | CC(=O)Oc1ccc(-c2c3ccccc3c(Br)c3sc(C)c(C)c23)cc1 [Example 7, Acetic Acid 4-(9-bromo-2,3-dimethyl-naphtho[2,3-b]thiophen-4-yl)-phenyl ester] | – | –
7 | 0.06 µM | – | −89.41% | Cc1sc2c(Br)c3ccccc3c(-c3cc(Br)c(O[C@H](CCc4ccccc4)C(=O)O)c(Br)c3)c2c1C [Example 32, (R)-2-[2,6-Dibromo-4-(9-bromo-2,3-dimethyl-naphtho[2,3-b]thiophen-4-yl)-phenoxy]-4-phenyl-butyric acid] | −15.68 (a) % | % Change Insulin from Vehicle (diabetic (ob/ob) mice; [3]): −48.35 ^ %
8 | – | 147 to 150 °C | – | CC(=O)Oc1ccc(-c2c3ccccc3cc3sc(C)c(C)c23)cc1 [Example 6, Acetic Acid 4-(2,3-dimethyl-naphtho[2,3-b]thiophen-4-yl)-phenyl ester] | – | –
9 | – | – | – | CC1(COc2ccc(CC3SC(=O)NC3=O)cc2)CCCCC1 (centres unmarked) [Ciglitazone, 5-(4-(1-methylcyclohexylmethoxy)benzyl)-2,4-dione, reference compound] | – | % Change Insulin from Vehicle (diabetic (ob/ob) mice; dose 100 mg/Kg): −39 ^ %; % Change Glucose from Vehicle (diabetic (ob/ob) mice; dose 100 mg/Kg): −43 ^ %
10 | – | 174 to 175 °C | – | COC(=O)[C@@H](Cc1ccccc1)Oc1c(Br)cc(-c2c3ccccc3c(Br)c3sc(C)c(C)c23)cc1Br [Example 28, (R)-2-[2,6-Dibromo-4-(9-bromo-2,3-dimethyl-naphtho[2,3-b]thiophen4-yl)-phenoxy]3-phenyl-propionic acid methyl ester] | – | –
11 | 1.74 µM | 157 to 162 °C | – | Cc1sc2c(Br)c3ccccc3c(-c3cc(Br)c(O)c(C(C)C)c3)c2c1C [Example 39, 2-Bromo-4-(9-bromo-2,3-dimethyl-naphtho[2,3-b]thiophen-4-yl)-6-isopropyl-phenol] | – | –
12 | 0.237 µM | – | −68.50% | Cc1sc2c(Br)c3ccccc3c(-c3ccc(O[C@H](Cc4ccccc4)C(=O)O)c(C(C)C)c3)c2c1C [Example 44, (R)-2-[4-(9-Bromo-2,3-dimethyl-naphtho[2,3-b]thiophen-4-yl)-6-isopropyl-phenoxy]-3-phenyl-propionic acid] | −17.2 ^ % | –
13 | – | 165 to 168 °C | – | Cc1sc2c(Br)c3ccccc3c(-c3ccc(O)cc3)c2c1C [Example 8, 4-(9-Bromo-2,3-dimethyl-naphtho[2,3-b]thiophen-4-yl)-phenol] | – | –
14 | 0.11 µM | – | −83.88% | Cc1sc2c(Br)c3ccccc3c(-c3cc(Br)c(O[C@H](Cc4ccccc4)C(=O)O)c(C(C)C)c3)c2c1C [Example 40, (R)-2-[2-Bromo-4-(9-bromo-2,3-dimethyl-naphtho[2,3-b]thiophen-4-yl)-6-isopropyl-phenoxy]-3-phenyl-propionic acid] | – | % Change Insulin from Vehicle (diabetic (ob/ob) mice; dose 100 mg/Kg): −90.80 ^ %; % Change Glucose from Vehicle (diabetic (ob/ob) mice; dose 100 mg/Kg): −28.20 ^ %
15 | 0.489 µM | 205 to 207 °C | – | Cc1sc2c(Br)c3ccccc3c(-c3cc(Br)c(O)c(NC(=O)OC(C)(C)C)c3)c2c1C [Example 56, [3-Bromo-5-(9-bromo-2,3-dimethyl-naphtho[2,3-b]thiophen-4-yl)-2-hydroxy-phenyl]-carbamic Acid tert-Butyl Ester] | – | –
16 | – | 237 to 239 °C | – | Cc1sc2c(Sc3ccccc3)c3ccccc3c(-c3cc(Br)c(O)c(Br)c3)c2c1C [Example 13, 2,6-Dibromo-4-(2,3-dimethyl-9-phenylsulfanyl-naphtho[2,3-b]thiophen-4-yl)-phenol] | – | –
17 | 0.029 µM | – | −61.92% | Cc1sc2c(Sc3ccccc3)c3ccccc3c(-c3cc(Br)c(O[C@H](Cc4ccccc4)C(=O)O)c(Br)c3)c2c1C [Example 33, (R)-2-[2,6-dibromo-4-(2,3-dimethyl-9-phenylsulfanyl-naphtho[2,3-b]thiophen-4-yl)-phenoxy]-3-phenyl-propionic acid] | −21.10 (a) % | % Change Insulin from Vehicle (diabetic (ob/ob) mice; [3]): −39.3 ^ %
18 | 0.164 µM | – | – | CCc1cc(-c2c3ccccc3c(Br)c3sc(C)c(C)c23)cc(CC)c1O[C@H](Cc1ccccc1)C(=O)O [Example 61, (R)-2-[4-(9-Bromo-2-,3-dimethyl-naphtho[2,3-b]thiophen-4-yl)-2,6-diethyl-phenoxy]-3-phenyl-propionic acid] | – | % Change Glucose from Vehicle (diabetic (ob/ob) mice; dose 10 mg/Kg, measured at 0 hour): −32.8 (c) %
19 | 0.273 µM | – | −58.85% | Cc1c(CN2CCOCC2)sc2c(Br)c3ccccc3c(-c3cc(Br)c(OC(Cc4ccccc4)C(=O)O)c(Br)c3)c12 (centres unmarked) [Example 35, 2-[2,6-Dibromo-4-(9-bromo-3-methyl-2-morpholin-4-ylmethyl-naphtho[2,3-b]thiophen-4-yl)-phenoxy]-3-phenyl-propionic acid] | −25.58 ^ % | % Change Insulin from Vehicle (diabetic (ob/ob) mice; [3]): −2.98 (a) %
20 | – | 173 to 175 °C | −28.57% | Cc1sc2c(Br)c3ccccc3c(-c3ccc(O)c(N)c3)c2c1C [Example 22, 2-Amino-4-(9-bromo-2,3-dimethyl-naphtho[2,3-b]thiophen-4-yl)-phenol] | – | –
21 | 0.171 µM | – | −78.84% | CCc1cc(-c2c3ccccc3c(Br)c3sc(C)c(C)c23)cc(Br)c1O[C@H](Cc1ccccc1)C(=O)O [Example 43, (R)-2-[2-Bromo-4-(9-bromo-2,3-dimethyl-naphtho[2,3-b]thiophen-4-yl)-6-ethyl-phenoxy]-3-phenyl-propionic acid] | −45.2 ^ % | –
22 | – | 212 to 213 °C | – | Cc1sc2c(I)c3ccccc3c(-c3ccc(OS(C)(=O)=O)cc3)c2c1C [Example 11, Methanesulfonic acid 4-(9-iodo-2,3-dimethyl-naphtho[2,3-b]thiophen-4-yl)-phenyl ester] | – | –
23 | – | 198 to 200 °C | – | COc1c(N)cc(-c2c3ccccc3c(Br)c3sc(C)c(C)c23)cc1Br [Example 58, 3-Bromo-5-(9-bromo-2,3-dimethyl-naphtho[2,3-b]thiophen-4-yl)-2-methoxy-phenylamine] | – | –
